Earlier results as cited in patent US20130143845A1, “VITAMIN D COMPOUNDS AND METHODS FOR ENHANCING MUSCLE STRENGTH, AND PREVENTION AND TREATMENT OF DISEASE IN HUMAN BEINGS” (priority 2011, published 2013).
Read-outs that look alike come from different tables or passages of the source.

Conditions: in circulation

C=C1/C(=C\C=C2/CCC[C@]3(C)[C@@H]([C@H](C)CCCC(C)(C)O)CC[C@@H]23)C[C@@H](O)C[C@@H]1O [1,25(OH)2D3, 1α,25-dihydroxyvitamin D3]
half-life of 1,25(OH)2D3 (prolonged by the invention (D3FACCPG), Lichtmann, personal communication): approximately 12 hours
half-life of 1,25(OH)2D3 (without the invention (Holick, 2003)): approximately 4 hours
